# Measured values taken from article PMC5522078, “Discovery and characterization of small molecules targeting the DNA-binding ETS domain of ERG in prostate cancer” (Oncotarget, 2017).
# How the values were obtained:
# PNT1B-MOCK cells = experiment: pETS-luc luciferase assay in PNT1B-MOCK cells (non-specific effect); format: cell-based, human; conditions: increasing concentrations, 48 h; compared to PNT1B-ERG cells
# Protocol: (§1) All of the compounds selected from the virtual screening were tested in a luciferase-based ERG-responsive reporter assay, using two ERG-overexpressing cell lines, VCaP and PNT1B-ERG, previously developed in house. […] Data were normalized first to Renilla luciferase and then to the DMSO-media control on each plate, unless otherwise stated. Initial hit compounds were identified as those with an average normalized luciferase reading (firefly luciferase/Renilla luciferase readings) that is 60% or less of the average normalized luciferase reading of the DMSO-media control (i.e. 40% or more reduction of luciferase activity) at 10 μM. Representative example of raw Renilla luciferase readings presented in Supplementary Figure 9B. […]
# (§2) Supplementary Figure 3: VPC-18005 selectively suppresses ERG-mediated transcriptional activity. […] Data are presented as the mean ± SEM of 4 technical replicates and expressed as luciferase:renilla ratio (activity).
# (§3) (B) Luciferase assay was performed on VCaP cells transfected with ETS responsive luciferase reporter and treated with DMSO (0) or 0.1, 1, or 10 nM R1881 in the presence of 25 μM of VPC-18005. Data are presented as the mean ± SEM of 4 technical replicates and expressed as the luciferase:renilla ratio relative to VPC-18005 alone. […]
# androgen receptor = target: T1, androgen receptor (Homo sapiens, UniProt P10275); experiment: Androgen receptor luciferase reporter (ARR3tk-luc) assay; format: cell-based; conditions: PC3 cells transfected with AR; 1 nM R1881; 1, 5 or 10 μM
# T1 construct: expressed in transfected cells; host or cells: PC3
# T1 sequence (P10275 1-920): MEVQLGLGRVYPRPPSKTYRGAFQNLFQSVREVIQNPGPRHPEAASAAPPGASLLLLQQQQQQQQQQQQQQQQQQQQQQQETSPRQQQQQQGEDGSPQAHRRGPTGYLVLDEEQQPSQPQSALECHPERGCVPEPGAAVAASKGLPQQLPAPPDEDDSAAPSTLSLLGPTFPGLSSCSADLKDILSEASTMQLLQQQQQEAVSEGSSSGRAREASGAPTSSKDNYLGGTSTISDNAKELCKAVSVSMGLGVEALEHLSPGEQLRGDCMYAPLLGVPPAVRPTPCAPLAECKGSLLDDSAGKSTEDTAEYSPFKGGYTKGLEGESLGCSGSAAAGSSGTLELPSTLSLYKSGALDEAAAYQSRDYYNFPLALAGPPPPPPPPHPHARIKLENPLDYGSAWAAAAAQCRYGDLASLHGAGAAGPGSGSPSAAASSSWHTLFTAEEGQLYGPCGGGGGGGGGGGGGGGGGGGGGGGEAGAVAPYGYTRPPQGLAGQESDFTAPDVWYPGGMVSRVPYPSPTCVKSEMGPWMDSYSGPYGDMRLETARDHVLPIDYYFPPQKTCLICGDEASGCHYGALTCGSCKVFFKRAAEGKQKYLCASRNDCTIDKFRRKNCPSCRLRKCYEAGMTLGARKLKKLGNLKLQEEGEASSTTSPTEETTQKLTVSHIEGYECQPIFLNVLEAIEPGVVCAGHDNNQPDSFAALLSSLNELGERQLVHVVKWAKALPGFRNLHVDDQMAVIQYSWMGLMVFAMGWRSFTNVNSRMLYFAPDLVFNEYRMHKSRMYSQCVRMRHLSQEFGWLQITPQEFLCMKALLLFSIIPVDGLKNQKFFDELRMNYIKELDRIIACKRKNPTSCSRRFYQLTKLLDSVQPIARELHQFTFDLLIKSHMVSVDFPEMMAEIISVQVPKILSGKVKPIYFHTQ
# Protocol: as §1, §2, §3
# [1] = Murine pharmacodynamics and toxicology studies; format: in vivo, mice
# Protocol: Supplementary Figure 10: (A) In a preliminary study to evaluate in vivo toxicity and establish working oral (PO) doses, Nu/nu mice (n = 4) received a single PO dose of VPC-18005 (100 mg/kg or 500 mg/kg) dissolved in cyclodextrin. Blood was collected directly after injection and at the times indicated. Serum concentration of VPC-18005 was determined for each time point. (B) In a 4 week “repeated dose” study, body weight was measured daily for mice (n = 4) that received a daily dose of VPC-18005 (150 mg/kg BID) dissolved 50% ethanol (PO) or 50% ethanol (Vehicle). Change in weight of each animal was normalized to starting pretreatment weight. (C) Cytotoxicity serum markers of vehicle and VPC-18005 treated animals described in B) were determined and presented as average (Avg. Conc.) and standard deviation (SD) with corresponding paired t-test p values. LC-MS analysis of serum indicators of major organ toxicity (albumin (ALB), alkaline phosphatase (ALP) and alanine aminotransferase (ALT) as indicators of liver dysfunction, amylase (AMY) to test for acute pancreatitis, total bilirubin (TBIL) to assess jaundice, and blood urea nitrogen (BUN) to assess kidney function from endpoint samples
# RWPE-ERG cells = experiment: MTS cell viability assay, RWPE-ERG; format: cell-based; conditions: increasing concentrations (0.2 to 25 μM), 72 h
# Protocol: Twenty four hours later, 100 μL of medium containing vehicle control or compounds. Each treatment was prepared in triplicate. After a 72 h treatment, cellular viability was assessed using CellTiter 96 ® Aqueous One Solution Cell Proliferation Assay reagent (Promega) according to the manufacturer's instructions. Values were normalized to the DMSO control. page 8: Supplementary Figure 4: VPC-18005 suppresses migration, but not growth of RWPE-1-ERG cells. (A) Cell viability (MTS) of ERG-expressing cells (RWPE-ERG) (closed circle) and non-ERG expressing cells (RWPE-MOCK (open square)) after treatment […] Impact on viability is presented as the mean ± SEM […] (B) RWPE-1-Mock or (C) […] The normalized cell index is a measure of the migration of the cells through the pores of the upper chamber and is used as the migration index. Dotted lines represent 1 standard deviation (SD) of the mean migration rate.
compound,measurement,setting,value
"CC(C)c1ccc(C=N/N=C2\NC(=O)[C@@H](CC(=O)O)S2)cc1 (stereo in doubt) [VPC-18005, 2-((Z)-2-(((Z)-4-isopropylbenzylidene)hydrazono)-4-oxothiazolidin-5-yl)acetic acid]",Impact on the reporter signal in PNT1B-MOCK,PNT1B-MOCK cells,minimal impact
same,Effect on androgen receptor luciferase reporter (ARR3tk-luc) expression,androgen receptor,no significant effect
same,"Solubility, stability and oral bioavailability in mice","[1]; Nu/nu mice, PO","soluble, stable and orally bioavailable"
same,"Serum indicators of major organ toxicity (ALB, ALP, ALT, AMY, TBIL, BUN)","[1]; mice, 150 mg/kg BID, 4 weeks, endpoint samples",no significant impact
same,"General toxicity, repeated dose","[1]; mice, 4 week BID at 150 mg/kg PO",does not exhibit general toxicity
same,"General toxicity, single dose","[1]; mice, single doses of up to 500 mg/kg PO",does not exhibit general toxicity
same,"Effect on cell viability (MTS), RWPE cells overexpressing ERG",RWPE-ERG cells,No effect on cell viability
